# Measured values taken from patent US10278942B2 (PELOTON THERAPEUTICS, INC., priority 2015, dated 2019).
# Target: T1, HIF-2α HIS TAG-PASB Domain (Homo sapiens, UniProt Q99814)
# T1 construct: 100 nM HIF-2α HIS TAG-PASB Domain
# Assay: HIF-2α Scintillation Proximity Assay (SPA)
# Assay type: binding
# Details: Scintillation Proximity Assay IC50 (nM)
# Protocol: The total assay volume was about 100 μL in the following configuration: 2 μL compound in 100% DMSO, 88 μL buffer with protein and probe and 10 μL of SPA beads. […] The percent inhibition was determined and IC50 values were calculated using the Dotmatics system based on the following equation: % inhibition=[(high control−sample)/(high control−low control)]×100.
# T1 sequence (Q99814 240-350 limits assumed): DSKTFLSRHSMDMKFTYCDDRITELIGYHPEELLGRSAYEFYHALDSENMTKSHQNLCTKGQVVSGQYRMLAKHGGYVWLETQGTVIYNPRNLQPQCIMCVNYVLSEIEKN
row,SMILES,IC50 [nM]
1,O=S1(=O)CCC(O)c2c1ccc(Oc1cc(F)cc(F)c1)c2C(F)F (stereo not drawn) [Compound 402],> 1000
2,O=Cc1cc(S(=O)(=O)C(F)(F)F)ccc1Oc1cc(F)cc(Cl)c1 [Compound 123],< 50
3,O=S(=O)(c1ccc(Oc2cc(F)cc(Cl)c2)c(Br)c1)C(F)(F)F [Compound 116],50 to 249
4,N#Cc1cc(S(=O)(=O)C(F)(F)F)ccc1Oc1cc(F)cc(Cl)c1 [Compound 119],50 to 249

# Same assay, conditions: read-out: Scintillation Proximity Assay IC50
row,IC50 [nM],SMILES
1,> 1000,Cc1c(Oc2cc(F)cc(C#N)c2)ccc(S(=O)(=O)C(F)(F)F)c1/C=C/c1nnco1 [Compound 150]
2,> 1000,N=S(=O)(c1ccc(Oc2cc(F)cc(Cl)c2)c(Br)c1)C(F)F (stereo not drawn) [Compound 69]
3,> 1000,Cc1ccc(Cl)cc1Oc1ccc(S(=O)(=O)C(F)(F)F)cc1Br [Compound 174]
4,> 1000,N#Cc1cncc(Oc2ccc(S(=O)(=O)C(F)F)c3c2CC[C@H]3O)c1 [Compound 4]
5,50 to 249,O/N=C1/c2c(C(F)(F)F)ccc(OCCCF)c2[C@@H](F)C1(F)F [Compound 700]
6,< 50,N#Cc1cc(F)cc(Oc2ccc3c(c2Br)[C@@H](O)C(F)(F)S3(=O)=O)c1 [Compound 347]
7,< 50,CS(=O)(=O)c1ccc(Oc2cncc(F)c2)c2c1[C@H](O)C(F)(F)[C@@H]2F [Compound 329]
8,> 1000,N#Cc1cc(F)cc(Oc2ccc(S(=O)(=O)C3CCC3)c3c2CCC3O)c1 (stereo not drawn) [Compound 208]
9,> 1000,O=S(=O)(c1ccc(Oc2cc(F)cc3[nH]ncc23)c2c1C(O)C(F)(F)C2)C(F)(F)F (stereo not drawn) [Compound 262]
10,> 1000,O=S(=O)(c1ccc(CC2CCCCC2)c2c1C(O)CC2)C(F)(F)F (stereo not drawn) [Compound 508]
11,> 1000,CS(=O)(=O)c1ccc(Oc2cncc(F)c2)c2c1[C@H](O)C(F)(F)[C@H]2F [Compound 330]
12,> 1000,CCOc1ccc(S(=O)(=O)C(F)(F)F)c2c1CCC2O (stereo not drawn) [Compound 589]
13,> 1000,CS(=O)(=NC#N)c1ccc(Oc2cc(F)cc(F)c2)c2c1C(O)CC2 (stereo not drawn) [Compound 189]
14,> 1000,O=S(=O)(c1ccc(NCc2cccs2)c2c1[C@H](O)C(F)(F)C2)C(F)F [Compound 528]
15,> 1000,O=S(=O)(c1ccc(OC2CCOC2)c2c1C(O)CC2)C(F)(F)F (stereo not drawn) [Compound 596]
16,> 1000,O=S(=O)(c1ccc(Cc2ccccc2)c2c1C(O)CC2)C(F)(F)F (stereo not drawn) [Compound 510]
17,> 1000,O=S(=O)(c1ccc(Nc2cncc(Cl)c2)c2c1C(O)CC2)C(F)(F)F (stereo not drawn) [Compound 503]
18,> 1000,Cc1cc(C#N)cc(Oc2ccc3c(c2C(F)F)C(=O)C(F)(F)S3(=O)=O)c1 [Compound 391]
19,> 1000,Cn1nccc1-c1ccc(S(=O)(=O)C(F)(F)F)c2c1CC(F)(F)[C@H]2O [Compound 559]
20,< 50,CS(=O)(=O)c1ccc(Oc2ccc(F)c(C#N)c2)c2c1[C@H](O)C(F)(F)[C@@H]2F [Compound 327]
21,> 1000,O[C@H]1c2c(OCC(F)F)ccc(C(F)(F)F)c2[C@@H](F)C1(F)F [Compound 689]
22,> 1000,CS(=O)(=O)N1CCCC(Oc2ccc(S(=O)(=O)C(F)(F)F)c3c2CC(F)(F)C3O)C1 (stereo not drawn) [Compound 628]
23,> 1000,O=S(=O)(c1ccc(CO)c2c1[C@H](O)C(F)(F)C2)C(F)(F)F [Compound 537]
24,> 1000,CS(=O)(=O)c1ccc(Oc2cncc(Cl)c2)c2c1[C@H](O)C(F)(F)[C@H]2F [Compound 332]
25,> 1000,O=S(=O)(c1ccc(O[C@@H]2CCCc3cn[nH]c32)c2c1[C@H](O)C(F)(F)C2)C(F)(F)F [Compound 729]
26,> 1000,N#CN=S(=O)(c1ccc(Oc2cc(F)cc(C#N)c2)c2c1[C@H](O)[C@H](F)C2)C(F)F (stereo partly drawn) [Compound 297]

row,IC50 [nM],SMILES
1,> 1000,COCCCOc1ccc(S(=O)(=O)C(F)(F)F)c2c1CCC2O (stereo not drawn) [Compound 600]
2,250 to 1000,O=S(=O)(c1ccc(Oc2cncc(Cl)c2)c2c1[C@H](O)CC2)C(F)(F)F [Compound 184]
3,> 1000,CC1(O)c2cc(Oc3cc(F)cc(F)c3)ccc2S(=O)(=O)C1(F)F (stereo not drawn) [Compound 425]
4,> 1000,OC1c2c(F)ccc(OCC(F)F)c2CC1(F)F (stereo not drawn) [Compound 652]
5,> 1000,CCCc1ccc(S(=O)(=O)C(F)(F)F)c2c1CCC2O (stereo not drawn) [Compound 515]
6,> 1000,O=S1(=O)C[C@H](O)c2c1ccc(Oc1cccc(F)c1)c2Br [Compound 419]
7,> 1000,O=S(=O)(c1ccc(CCO)c2c1C(O)C(F)(F)C2)C(F)(F)F (stereo not drawn) [Compound 520]
8,> 1000,CC1(O)c2c(ccc(OCc3ccccc3)c2C#N)S(=O)(=O)C1(F)F (stereo not drawn) [Compound 459]
9,> 1000,CS(=O)(=O)c1ccc(Oc2cc(F)cc(C#N)c2)c2c1[C@H](O)C(F)(F)[C@H]2O [Compound 311]
10,> 1000,Cc1cc(C)cc(Oc2ccc(S(=O)(=O)C(F)(F)F)cc2Br)c1 [Compound 173]
11,> 1000,O=C1CC[C@@H](Oc2ccc(S(=O)(=O)C(F)(F)F)c3c2CC(F)(F)[C@H]3O)CN1 [Compound 720]
12,> 1000,O=S(=O)(c1ccc(OC2CCCNC2)c2c1[C@H](O)C(F)(F)C2)C(F)(F)F (stereo partly drawn) [Compound 797]
13,50 to 249,N#Cc1cc(F)cc(Oc2ccc3c(c2CF)C(O)C(F)(F)S3(=O)=O)c1 (stereo not drawn) [Compound 388]
14,> 1000,Cc1c(Oc2cc(F)cc(C#N)c2)ccc(S(=O)(=O)C(F)(F)F)c1/C=C/C(=O)NCc1ccccc1 [Compound 149]
15,> 1000,CS(=O)(=NC#N)c1ccc(Oc2cc(F)cc(C#N)c2)c2c1[C@H](O)C(F)(F)[C@H]2F (stereo partly drawn) [Compound 318]
16,> 1000,CC(=O)N1CCC(Oc2ccc(S(=O)(=O)C(F)(F)F)c3c2CC(F)(F)C3O)C1 (stereo not drawn) [Compound 629]
17,> 1000,CC1(COc2ccc(S(=O)(=O)C(F)(F)F)c3c2CCC3O)COC1 (stereo not drawn) [Compound 621]
18,> 1000,N#Cc1ccc(Oc2cc(F)cc(F)c2)c2c1[C@H](O)CC2 [Compound 66]
19,> 1000,Cc1c(S(C)(=O)=O)ccc(Oc2cc(F)cc(C#N)c2)c1C#N [Compound 51]
20,> 1000,NC(=O)Cc1ccc(S(=O)(=O)C(F)(F)F)c2c1CC(F)(F)[C@H]2O [Compound 527]
21,< 50,NS(=O)(=O)c1ccc(Oc2cncc(F)c2)c2c1[C@H](O)C(F)(F)[C@@H]2F [Compound 341]
22,< 50,N#Cc1cncc(Oc2ccc(S(N)(=O)=O)c3c2[C@@H](F)C(F)(F)[C@H]3O)c1 [Compound 340]
23,> 1000,NC(=O)Cc1ccc(S(=O)(=O)C(F)(F)F)c2c1CC[C@H]2O [Compound 525]
24,> 1000,CC(C)Oc1ccc(S(=O)(=O)C(F)(F)F)c2c1CCC2O (stereo not drawn) [Compound 592]
25,> 1000,O[C@H]1c2c(OCC(F)F)ccc(C(F)(F)F)c2[C@H](F)C1(F)F [Compound 690]
26,> 1000,COc1ccc(S(=O)(=O)C(F)(F)F)c2c1CC(F)(F)C2O (stereo not drawn) [Compound 590]

row,IC50 [nM],SMILES
1,> 1000,"Fc1cc(F)cc(Oc2ncc(Br)c3c2CCC3)c1 [Compound 469, 4-bromo-1-(3,5-difluorophenoxy)-6,7-dihydro-5H-cyclopenta[c]pyridine]"
2,> 1000,O=S(=O)(c1ccc(OCC2CC2)c2c1C(O)CC2)C(F)(F)F (stereo not drawn) [Compound 597]
3,> 1000,CNCCOc1ccc(S(=O)(=O)C(F)(F)F)c2c1CC(F)(F)C2O (stereo not drawn) [Compound 650]
4,50 to 249,CC1(O)c2c(ccc(Oc3cc(F)cc(C#N)c3)c2C(F)F)S(=O)(=O)C1(F)F (stereo not drawn) [Compound 442]
5,> 1000,CS(=O)(=O)c1ccc(N2CCC[C@@H](O)C2)c2c1[C@H](O)C(F)(F)[C@@H]2F [Compound 553]
6,> 1000,O/N=C1\CCc2c(OCC(F)F)ccc(C(F)(F)F)c21 [Compound 698]
7,> 1000,OC1c2cccc(OCC(F)F)c2CC1(F)F (stereo not drawn) [Compound 651]
8,> 1000,O=S(=O)(c1ccc(Oc2cc(F)cc(Cl)c2)c(Cl)c1CNCC(F)(F)F)C(F)F [Compound 47]
9,> 1000,C=C1CC(O)c2c(S(C)(=O)=O)ccc(Oc3cc(F)cc(Cl)c3)c21 (stereo not drawn) [Compound 280]
10,> 1000,O=S(=O)(c1ccc(NCc2ccco2)c2c1[C@H](O)C(F)(F)C2)C(F)F [Compound 529]
11,> 1000,N#Cc1cc(F)cc(Oc2ccc(S(=N)(=O)C(F)(F)F)c3c2CCC3O)c1 (stereo not drawn) [Compound 259]
12,> 1000,O=S(=O)(c1ccc(OC2CCOCC2)c2c1C(O)CC2)C(F)(F)F (stereo not drawn) [Compound 745]
13,> 1000,N#Cc1c(I)ccc(Oc2cc(F)cc(Cl)c2)c1Br [Compound 96]
14,> 1000,O=S(=O)(c1ccc(OC2CCNC2)c2c1C(O)C(F)(F)C2)C(F)(F)F (stereo not drawn) [Compound 643]
15,< 50,COCCNC1c2c(ccc(Oc3cc(F)cc(F)c3)c2Br)S(=O)(=O)C1(F)F (stereo not drawn) [Compound 379]
16,> 1000,Nc1ncccc1-c1ccc(S(=O)(=O)C(F)(F)F)c2c1CC(F)(F)[C@H]2O [Compound 539]
17,> 1000,Cc1n[nH]c(C)c1-c1ccc(S(=O)(=O)C(F)(F)F)c2c1CC(F)(F)[C@H]2O [Compound 562]
18,> 1000,CN1CCCC(Oc2ccc(S(=O)(=O)C(F)(F)F)c3c2CC(F)(F)C3O)C1 (stereo not drawn) [Compound 634]
19,> 1000,NC(=O)COc1ccc(S(=O)(=O)C(F)(F)F)c2c1CC(F)(F)C2O (stereo not drawn) [Compound 640]
20,250 to 1000,C/C(=N\O)c1c(S(=O)(=O)C(F)(F)F)ccc(Oc2cc(F)cc(Cl)c2)c1Br [Compound 106]
21,> 1000,O=S(=O)(c1ccc(OC2CCc3ncccc32)c2c1[C@H](O)C(F)(F)C2)C(F)(F)F (stereo partly drawn) [Compound 733]
22,> 1000,Fc1cc(Cl)cc(Oc2ccc(C(F)(F)F)c(Cl)c2Br)c1 [Compound 97]
23,> 1000,COCCNC1c2c(ccc(Oc3cc(F)cc(C#N)c3)c2C(F)F)S(=O)(=O)C1(F)F (stereo not drawn) [Compound 382]
24,> 1000,COc1ccc(S(=O)(=O)C(F)(F)F)c2c1CCC2O (stereo not drawn) [Compound 588]

row,SMILES,IC50 [nM]
1,NCC1(O)CCc2c(OCC(F)F)ccc(C(F)(F)F)c21 (stereo not drawn) [Compound 705],> 1000
